Data taken from patent US12103920B2, “Cereblon binding compounds, compositions thereof, and methods of treatment therewith” (Celgene Corporation, priority 2020, dated 2024).
Structures can show the parent of a compound that is named as a salt.

Target: T1, AR protein in VCaP cells (Homo sapiens, UniProt P10275)
T1 construct: endogenous in cells; host or cells: VCaP cells
T1 sequence (P10275 1-920): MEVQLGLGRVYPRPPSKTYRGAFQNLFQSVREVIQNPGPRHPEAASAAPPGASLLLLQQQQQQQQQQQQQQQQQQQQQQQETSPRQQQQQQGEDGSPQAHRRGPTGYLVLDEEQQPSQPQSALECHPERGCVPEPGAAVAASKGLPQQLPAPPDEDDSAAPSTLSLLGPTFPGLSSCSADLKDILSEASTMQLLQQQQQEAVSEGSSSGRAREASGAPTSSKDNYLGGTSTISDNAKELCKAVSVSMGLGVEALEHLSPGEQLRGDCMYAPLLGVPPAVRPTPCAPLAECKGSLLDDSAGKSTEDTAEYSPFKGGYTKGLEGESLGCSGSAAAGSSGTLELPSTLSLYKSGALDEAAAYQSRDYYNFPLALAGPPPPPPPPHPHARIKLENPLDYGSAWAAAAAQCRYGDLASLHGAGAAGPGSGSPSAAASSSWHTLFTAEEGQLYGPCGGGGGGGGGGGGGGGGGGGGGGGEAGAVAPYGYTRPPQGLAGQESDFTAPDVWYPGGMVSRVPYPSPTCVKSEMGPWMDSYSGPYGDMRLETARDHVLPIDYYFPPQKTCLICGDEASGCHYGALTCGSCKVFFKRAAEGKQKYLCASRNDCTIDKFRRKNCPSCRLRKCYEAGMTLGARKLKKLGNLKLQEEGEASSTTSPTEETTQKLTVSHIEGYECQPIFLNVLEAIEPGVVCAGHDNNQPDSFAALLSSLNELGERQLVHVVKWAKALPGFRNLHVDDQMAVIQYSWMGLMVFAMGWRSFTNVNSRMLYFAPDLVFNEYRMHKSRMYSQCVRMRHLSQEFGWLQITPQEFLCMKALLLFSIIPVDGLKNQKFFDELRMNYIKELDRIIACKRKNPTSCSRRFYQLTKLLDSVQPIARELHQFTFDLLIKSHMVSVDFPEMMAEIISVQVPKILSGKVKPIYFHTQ
Test: VCAP AR Degradation Assay
Assay type: cell-based
Settings: 24 h, AR ELISA; for DC50: concentration at 50% of DMSO control (50% AR degradation); for Y: lowest measured AR level normalized to DMSO control
Description: VCAP AR Degradation Assay. Test compounds were pre-dispensed into a Corning CellBind 96-well clear bottom plate (Cat #3300) using an acoustic dispenser to make a 10-point concentration series at 1:3 dilution for each compound. The final top concentration of each compound was 5 μM. DMSO at a final concentration of 0.1% was used as a control. VCaP cells cultured in DMEM with 8% fetal bovine serum (FBS) were seeded at 50K cells per well in a 200 μL volume into the compound plate and incubated at 37° C. in a CO2 incubator for 24 h. The medium was carefully removed from the cells and the plate was placed on ice. One hundred μL of ice-cold 1× cell lysis buffer from Cell Signaling Technologies (Cat #9803) was added to each well of the cells and the plate was incubated at 4° C. on a shaker for 1 h. Fifteen μL of cell lysate was used for AR ELISA detection using a PathScan Total Sandwich AR ELISA kit (Cell Signaling Technology, Cat #12580). AR levels in compound-treated wells were normalized to that of DMSO control and expressed as percent of control (PoC) (y). A Four Parameter Logistic Model (Sigmoidal Dose-Response Model) was used to determine the compound's DC50, and EC50, using the following equation: y=(A+((B−A)/(1+((C/x)^D)))) • A=YMin (lowest AR level normalized to DMSO control in response to compound treatment, as determined by curve fit) • B=YMax (maximum AR level as determined by curve fit) • C=EC50 • D=Hill Slope • x=compound concentration • EC50=the concentration of compound when y=(YMax−YMin)/2 • DC50=the concentration of the compound when y=50% of DMSO control (50% AR degradation) • y=AR protein level normalized to DMSO control
The lowest measured AR level normalized to DMSO control in response to compound treatment, termed Y value, was used to characterize the compound-mediated AR degradation efficiency.

Structure (SMILES) | DC50 [nM] | Y
C[C@@H]1C[C@@H](CCO[C@H]2CC[C@H](N3C(=S)N(c4ccc(C#N)c(C(F)(F)F)c4)C(=O)C3(C)C)CC2)C[C@H](C)N1CC(=O)Nc1cccc(NC2CCC(=O)NC2=O)c1 (stereo partly drawn) [Cmpd 15, 2-((2R,4s,6S)-4-(2-((trans-4-(3-(4-Cyano-3-(trifluoromethyl)phenyl)-5,5-dimethyl-4-oxo-2-thioxoimidazolidin-1-yl)cyclohexyl)oxy)ethyl)-2,6-dimethylpiperidin-1-yl)-N-(3-((2,6-dioxopiperidin-3-yl)amino)phenyl)acetamide hydrochloride] | 5 to 10 | * (0<Y≤15%)
C[C@@H]1CN(CCC[C@H]2CC[C@H](N3C(=S)N(c4cnc(C#N)c(Cl)c4)C(=O)C3(C)C)CC2)C[C@H](C)N1CC(=O)Nc1cccc(NC2CCC(=O)NC2=O)c1 (stereo partly drawn) [Cmpd 13, 2-((2R,6S)-4-(3-(trans-4-(3-(5-Chloro-6-cyanopyridin-3-yl)-5,5-dimethyl-4-oxo-2-thioxoimidazolidin-1-yl)cyclohexyl)propyl)-2,6-dimethylpiperazin-1-yl)-N-(3-((2,6-dioxopiperidin-3-yl)amino)phenyl)acetamide hydrochloride] | 5 to 10 | *** (25%<Y<50%)
C[C@@H]1C[C@H](OCCC[C@H]2CC[C@H](N3C(=S)N(c4ccc(C#N)c(C(F)(F)F)c4)C(=O)C3(C)C)CC2)C[C@H](C)N1CC(=O)Nc1cccc(NC2CCC(=O)NC2=O)c1 (stereo partly drawn) [Cmpd 32, 2-((2R,4r,6S)-4-(3-((trans)-4-(3-(4-Cyano-3-(trifluoromethyl)phenyl)-5,5-dimethyl-4-oxo-2-thioxoimidazolidin-1-yl)cyclohexyl)propoxy)-2,6-dimethylpiperidin-1-yl)-N-(3-((2,6-dioxopiperidin-3-yl)amino)phenyl)acetamide] | 10 to 100 | ** (15%<Y≤20%)
C[C@@H]1CN(CCC[C@H]2CC[C@H](N3C(=S)N(c4cnc(C#N)c(C(F)(F)F)c4)C(=O)C3(C)C)CC2)C[C@H](C)N1CC(=O)Nc1cccc(NC2CCC(=O)NC2=O)c1 (stereo partly drawn) [Cmpd 11, 2-((2R,6S)-4-(3-(trans-4-(3-(6-Cyano-5-(trifluoromethyl)pyridin-3-yl)-5,5-dimethyl-4-oxo-2-thioxoimidazolidin-1-yl)cyclohexyl)propyl)-2,6-dimethylpiperazin-1-yl)-N-(3-((2,6-dioxopiperidin-3-yl)amino)phenyl)acetamide hydrochloride] | ≤ 5 | * (0<Y≤15%)
C[C@@H]1CN(CCCO[C@H]2CC[C@H](N3C(=S)N(c4ccc(C#N)c(C(F)(F)F)c4)C(=O)C3(C)C)CC2)C[C@H](C)N1CC(=O)Nc1cccc(NC2CCC(=O)NC2=O)c1 (stereo partly drawn) [Cmpd 12, 2-((2R,6S)-4-(3-((trans-4-(3-(4-Cyano-3-(trifluoromethyl)phenyl)-5,5-dimethyl-4-oxo-2-thioxoimidazolidin-1-yl)cyclohexyl)oxy)propyl)-2,6-dimethylpiperazin-1-yl)-N-(3-((2,6-dioxopiperidin-3-yl)amino)phenyl)acetamide hydrochloride] | 5 to 10 | *** (25%<Y<50%)
CC1(C)C(=O)N(c2ccc(C#N)c(C(F)(F)F)c2)C(=S)N1[C@H]1CC[C@H](OCCN2CCN(CC(=O)Nc3cc(Cl)cc(NC4CCC(=O)NC4=O)c3)[C@@H](C(F)(F)F)C2)CC1 (stereo partly drawn) [Cmpd 27, N-(3-Chloro-5-((2,6-dioxopiperidin-3-yl)amino)phenyl)-2-((R)-4-(2-(((trans)-4-(3-(4-cyano-3-(trifluoromethyl)phenyl)-5,5-dimethyl-4-oxo-2-thioxoimidazolidin-1-yl)cyclohexyl)oxy)ethyl)-2-(trifluoromethyl)piperazin-1-yl)acetamide] | 10 to 100 | * (0<Y≤15%)
C[C@@H]1CN(CCC[C@H]2CC[C@H](N3C(=S)N(c4ccc(C#N)c(Cl)c4)C(=O)C3(C)C)CC2)C[C@H](C)N1CC(=O)Nc1cccc(NC2CCC(=O)NC2=O)c1 (stereo partly drawn) [Cmpd 14, 2-((2S,6R)-4-(3-(trans-4-(3-(3-Chloro-4-cyanophenyl)-5,5-dimethyl-4-oxo-2-thioxoimidazolidin-1-yl)cyclohexyl)propyl)-2,6-dimethylpiperazin-1-yl)-N-(3-((2,6-dioxopiperidin-3-yl)amino)phenyl)acetamide hydrochloride] | 10 to 100 | *** (25%<Y<50%)

Further lines, results first:

DC50 [nM] | Y | Structure (SMILES)
≤ 5 | * (0<Y≤15%) | C[C@@H]1C[C@H](CCO[C@H]2CC[C@H](N3C(=S)N(c4cnc(C#N)c(C(F)(F)F)c4)C(=O)C3(C)C)CC2)C[C@H](C)N1CC(=O)Nc1cccc(NC2CCC(=O)NC2=O)c1 (stereo partly drawn) [Cmpd 21, 2-((2S,4r,6R)-4-(2-((trans-4-(3-(6-Cyano-5-(trifluoromethyl)pyridin-3-yl)-5,5-dimethyl-4-oxo-2-thioxoimidazolidin-1-yl)cyclohexyl)oxy)ethyl)-2,6-dimethylpiperidin-1-yl)-N-(3-((2,6-dioxopiperidin-3-yl)amino)phenyl)acetamide]
5 to 10 | * (0<Y≤15%) | CC1(C)C(=O)N(c2cnc(C#N)c(C(F)(F)F)c2)C(=S)N1[C@H]1CC[C@H](CCCN2CCN(CC(=O)Nc3cccc(NC4CCC(=O)NC4=O)c3)[C@@H](C(F)(F)F)C2)CC1 (stereo partly drawn) [Cmpd 25, 2-((R)-4-(3-((trans)-4-(3-(6-Cyano-5-(trifluoromethyl)pyridin-3-yl)-5,5-dimethyl-4-oxo-2-thioxoimidazolidin-1-yl)cyclohexyl)propyl)-2-(trifluoromethyl)piperazin-1-yl)-N-(3-((2,6-dioxopiperidin-3-yl)amino)phenyl)acetamide]
≤ 5 | * (0<Y≤15%) | CC1(C)C(=O)N(c2cnc(C#N)c(C(F)(F)F)c2)C(=S)N1[C@H]1CC[C@H](OCCN2CCN(CC(=O)Nc3cc(F)cc(NC4CCC(=O)NC4=O)c3)[C@@H](C(F)(F)F)C2)CC1 (stereo partly drawn) [Cmpd 24, 2-((R)-4-(2-(((trans)-4-(3-(6-Cyano-5-(trifluoromethyl)pyridin-3-yl)-5,5-dimethyl-4-oxo-2-thioxoimidazolidin-1-yl)cyclohexyl)oxy)ethyl)-2-(trifluoromethyl)piperazin-1-yl)-N-(3-((2,6-dioxopiperidin-3-yl)amino)-5-fluorophenyl)acetamide]
5 to 10 | ** (15%<Y≤20%) | C[C@@H]1C[C@H](OCCC[C@H]2CC[C@H](N3C(=S)N(c4cnc(C#N)c(C(F)(F)F)c4)C(=O)C3(C)C)CC2)C[C@H](C)N1CC(=O)Nc1cccc(NC2CCC(=O)NC2=O)c1 (stereo partly drawn) [Cmpd 33, 2-((2R,4r,6S)-4-(3-((trans)-4-(3-(6-Cyano-5-(trifluoromethyl)pyridin-3-yl)-5,5-dimethyl-4-oxo-2-thioxoimidazolidin-1-yl)cyclohexyl)propoxy)-2,6-dimethylpiperidin-1-yl)-N-(3-((2,6-dioxopiperidin-3-yl)amino)phenyl)acetamide hydrochloride]
≤ 5 | * (0<Y≤15%) | CC1(C)C(=O)N(c2cnc(C#N)c(C(F)(F)F)c2)C(=S)N1[C@H]1CC[C@H](OCCN2CCN(CC(=O)Nc3cc(C#N)cc(NC4CCC(=O)NC4=O)c3)[C@@H](C(F)(F)F)C2)CC1 (stereo partly drawn) [Cmpd 31, N-(3-Cyano-5-((2,6-dioxopiperidin-3-yl)amino)phenyl)-2-((R)-4-(2-(((trans)-4-(3-(6-cyano-5-(trifluoromethyl)pyridin-3-yl)-5,5-dimethyl-4-oxo-2-thioxoimidazolidin-1-yl)cyclohexyl)oxy)ethyl)-2-(trifluoromethyl)piperazin-1-yl)acetamide]
